Calls of active or inactive are those of the source. The rule behind the calls is not given here.
How the values were obtained:
[1] = Metabolic stability in Sprague-Dawley rat liver microsomes at 100 ug/ml measured after 10 mins in presence of NADPH generating system by HPLC analysis; assay type: ADME, Microsome; settings: at 100 µg/mL, read-out: Stability
[2] = Metabolic stability in Sprague-Dawley rat liver microsomes at 100 ug/ml measured after 30 mins in presence of NADPH generating system by HPLC analysis; assay type: ADME, Microsome; settings: at 100 µg/mL, read-out: Stability
[3] = Metabolic stability in Sprague-Dawley rat liver microsomes at 100 ug/ml measured after 60 mins in presence of NADPH generating system by HPLC analysis; assay type: ADME, Microsome; settings: at 100 µg/mL, read-out: Stability
[4] = Metabolic stability in Sprague-Dawley rat liver microsomes at 100 ug/ml measured after 120 mins in presence of NADPH generating system by HPLC analysis; assay type: ADME, Microsome; settings: at 100 µg/mL, read-out: Stability
[5] = Metabolic stability in Sprague-Dawley rat liver microsomes assessed as half life at 100 ug/ml measured upto 120 mins in presence of NADPH generating system by HPLC analysis; assay type: ADME, Microsome; settings: dose 100 µg/ml
[6] = Tmax in Sprague-Dawley rat at 20 mg/kg, iv administered as single dose measured upto 6 hrs by HPLC analysis; assay type: ADME, organism-based; settings: in vivo
[7] = Cmax in Sprague-Dawley rat at 20 mg/kg, iv administered as single dose measured upto 6 hrs by HPLC analysis; assay type: ADME, organism-based; set-up: dose 20 mg/kg, time < 6 hrs, route iv; settings: in vivo
[8] = Half life in Sprague-Dawley rat at 20 mg/kg, iv administered as single dose measured upto 6 hrs by HPLC analysis; assay type: ADME, organism-based; settings: in vivo
[9] = Clearance in Sprague-Dawley rat at 20 mg/kg, iv administered as single dose measured upto 6 hrs by HPLC analysis; assay type: ADME, organism-based; settings: in vivo
[10] = Apparent volume of distribution in Sprague-Dawley rat at 20 mg/kg, iv administered as single dose measured upto 6 hrs by HPLC analysis; assay type: ADME, organism-based; settings: in vivo, read-out: Vz
[11] = AUC (0 to t) in Sprague-Dawley rat at 20 mg/kg, iv administered as single dose measured upto 6 hrs by HPLC analysis; assay type: ADME, organism-based; set-up: dose 20 mg/kg, time < 6 hrs, route iv; settings: in vivo
[12] = AUC (0 to infinity) in Sprague-Dawley rat at 20 mg/kg, iv administered as single dose measured upto 6 hrs by HPLC analysis; assay type: ADME, organism-based; set-up: time < 6 hrs, dose 20 mg/kg, route iv; settings: in vivo
A549 [13] = experiment: Cytotoxicity against human A549 cells assessed as reduction in cell growth incubated for 48 hrs by CCK-8 method; assay type: functional, cell-based
[14] = Cytotoxicity against human HUVEC cells assessed as reduction in cell growth incubated for 48 hrs by CCK-8 method; assay type: toxicity, cell-based
A549 [15] = experiment: Cytotoxicity against human A549 cells assessed as reduction in cell growth at 4 uM incubated for 48 hrs by CCK-8 method; assay type: functional, cell-based
HUVEC [16] = experiment: Cytotoxicity against human HUVEC cells assessed as reduction in cell growth at 10 uM incubated for 48 hrs by CCK-8 method; assay type: toxicity, cell-based
A549 [17] = experiment: Antimigratory activity in human A549 cells assessed as decrease in cell migration at 4 uM incubated for 24 hrs by wound healing assay; assay type: functional, cell-based
A549 [18] = experiment: Inhibition of VEGF induced cell invasion in human A549 cells measured after 24 hrs by calcein-AM staining transwell invasion assay; assay type: functional, cell-based; settings: dose 0-4 µM
A549 [19] = experiment: Inhibition of cell invasion in human A549 cells at 0 to 4 uM measured after 24 hrs by calcein-AM staining transwell invasion assay; assay type: functional, cell-based; settings: dose 0-4 µM
HUVEC [20] = experiment: Antiangiogenic activity in HUVEC assessed as inhibition of VEGF-induced tube formation measured after 12 hrs by matrigel based analysis; assay type: functional, cell-based; settings: Homo sapiens, dose 0-8 µM
[21] = Plasma protein binding in Sprague-Dawley rat assessed as free fraction by equilibrium dialysis analysis; assay type: ADME, cell-free
[22] = Subchronic toxicity in Kunming mouse assessed as effect on body weight at 50 mg/kg administered via oral gavage measured upto 10 days; assay type: organism-based; settings: in vivo, 240 h, time < 10 day
[23] = Subchronic toxicity in Kunming mouse assessed as effect on apparent behavior problem at 50 mg/kg administered via oral gavage measured upto 10 days; assay type: organism-based; settings: in vivo, 240 h, time < 10 day
[24] = Subchronic toxicity in Kunming mouse assessed as adverse events at 50 mg/kg administered via oral gavage measured upto 10 days; assay type: organism-based; settings: in vivo, 240 h, time < 10 day
[25] = Subchronic toxicity in Kunming mouse assessed as drug tolerance at 50 mg/kg administered via oral gavage measured upto 10 days; assay type: organism-based; settings: in vivo, 240 h, time < 10 day
[26] = Subchronic toxicity in Kunming mouse assessed as side effects at 50 mg/kg administered via oral gavage measured upto 10 days; assay type: organism-based; settings: in vivo, 240 h, time < 10 day
Mus musculus [27] = species on record: Mus musculus; experiment: Anti-angiogenesis activity in VEGF stimulated C57/bl6 mouse assessed as decrease in number of blood vessels at 1.25 to 20 uM measured after 10 days; assay type: functional, organism-based; settings: dose 1.25-20 µM, time 10.0 day
Mus musculus [28] = species on record: Mus musculus; experiment: Anti-angiogenesis activity in VEGF stimulated C57/bl6 mouse assessed as formation of new blood vessels at 20 uM measured after 10 days; assay type: functional, organism-based; settings: time 10.0 day
Mus musculus [29] = experiment: Anti-angiogenesis activity in VEGF stimulated C57/bl6 mouse implanted with matrigel assessed as appearance of hemoglobin content in matrigel plug at 1.25 to 20 uM measured after 10 days; assay type: functional, organism-based; settings: dose 1.25-20 µM, time 10.0 day
T47D = experiment: Cytotoxicity activity against human T47D cells; assay type: functional, cell-based

In the case of `COc1ccc(/C=C/C(=O)c2ccc3c(c2O)C=CC(C)(C)O3)cc1OCCCN1CCCC1`, the remaining at 10 min, 100 ug/ml [1] is reported as 90%, the remaining at 0.5 h, 100 ug/ml [2] is reported as 77% and the remaining at 1 h, 100 ug/ml [3] is reported as 60%. It also gave a remaining at 2 h, 100 ug/ml [4] of 51%, a half-life at 100 ug/ml [5] of 2.3 h and a Tmax [6] of 1.98 min. The Cmax [7] was 7.06 µM, the half-life [8] was 1.64 h and the clearance [9] was 39.5 mL/min. The Vd [10] was 5.59 L, the AUC(0-t) at 6 h [11] was 5.27 µM·h and the AUC(0-inf) [12] was 8.88 µM·h. For the same compound, the IC50 (A549 [13]; A549, 48 h) was 8.88 µM, the IC20 (A549 [13]; A549, time 48 hrs) was 4.19 µM and the IC50 at 48 h [14] was 19.6 µM. The IC20 at 48 h ([14]; time 48 hrs) was 10.6 µM, the Activity (A549 [15]) was “inactive” and the Activity (HUVEC [16]) was “Non-Toxic”. For the same compound, the Activity (A549 [17]) was “Active”, the inhibition (A549 [18]) was “Dose-Dependent Effect” and the inhibition (A549 [19]) was “Active”. The Activity (HUVEC [20]) was “Dose-Dependent Effect”, the fraction unbound [21] was 0.88 and the Activity [22] was “Non-Toxic”. For the same compound, the Activity [23] was “Non-Toxic”, the Activity [24] was “Non-Toxic” and the Activity [25] was “Non-Toxic”. For the same compound, the Activity [26] was “Non-Toxic”, the Activity (Mus musculus [27]) was “Active” and the Activity (Mus musculus [28]) was “inactive”. For the same compound, the Activity (Mus musculus [29]) was “Active”.
Compound `COc1ccc([C@@H](O)[C@@H](C)Oc2ccc([C@H]3O[C@H](c4ccc(O[C@H](C)[C@H](O)c5ccc(OC)c(OC)c5)c(OC)c4)[C@H](C)[C@H]3C)cc2OC)cc1OC` has an IC50 (T47D) of 0.003 µM.
